For data set [1], the system named is HHV-8. The data set is described as follows: quantitative PCR-based (Taqman) assay for agents active against HHV-8 in TPA-induced BCBL-1 cells. It counts as cell-based, human herpesvirus 8. As to the method: 3. […] Samples were incubated at 37° C. for 30 minutes.
4. […] Total reaction volumes were 50 μL.

The nature of data set [2]: XTT-tetrazolium assay of compound toxicity to host cells. It counts as cell-based. The note with it: human; Table IV, six concentrations; read-out: TC50.
Method: Culturing these cells in the presence of phobol ester induces a lytic infection cycle, resulting in the release of viral particles into the medium. Compound efficacy in this proposed assay was determined using the Taqman PCR technology, and compound toxicity to host cells was assessed using an XTT-tetrazolium assay.
1. BCBL-1 cells were counted by the trypan blue dye exclusion method, and the cell count/mL was determined. Cells were pelleted by centrifugation and washed once with PBS to minimize the basal level of virus released from untreated cells which spontaneously enter the lytic cycle and release virus.
2. Cells were resuspended in fresh media and adjusted to a cell density of 1×10^5 per mL. Cells were then plated in the interior wells of 96-well round-bottom microtiter plates in a volume of 50 μL per well.
3. The phorbol ester TPA was added to appropriate wells in a volume of 50 μL per well to yield a final concentration of 20 ng/mL. Medium was added in place of TPA in three wells to serve as a negative control.
4. Test compounds were diluted in DMSO to a stock concentration which is 400× the desired high concentration. These compounds were further diluted in complete medium in 1.2 mL titertubes to yield a solution which is 2× the desired high concentration. […]
2. […] Plates were read on UVMax microtiter plate reader at a wavelength of 450/650 nm.
Data set [3] addresses HIV reverse transcriptase (Human immunodeficiency virus type 1 group M subtype B, UniProt P03366). The note with it: HIV RT; cited from earlier work.
For data set [4] the following is noted: in vivo; cited from earlier work.
The test system of data set [5] is Cytomegalovirus (CMV). As to conditions: clinical trials, AIDS patients; cited from earlier work.

Bounds are passed on as bounds.

For the compound `O=C(O)P(=O)(O)O` [Foscarnet, Trisodium phosphonoformate], the “TI (therapeutic index)” value in data set [1] was above 38.9. The same compound showed an IC50 in data set [1] (Human gammaherpesvirus 8, BCBL1, Table IV, six concentrations, Foscarnet value is average of six separate tests) of 7.7 µM. For the same compound, in data set [1] (Table IV, by TI), the outcome was active. For the same compound, the CC50 at 6 days in data set [2] is above 300 µM. In addition, in data set [3], the IC50 was around 1 µM. The oral bioavailability result in data set [4] is “low”. Besides, in data set [5], the “efficacy in treatment of CMV infection” value is reported as “efficacious” and the nephrotoxicity result is recorded as “reversible nephrotoxicity”.

`CCCCCCCCCCCCCCOC(=O)P(=O)([O-])OC.[Na+]` [ID# 8]: the “antiviral activity against HHV-8 (in words)” value in data set [1] (bioassay with HHV-8) is “moderate to relatively high antiviral activity”.
